Measured values as given in patent US20250179051A1, “PYRIMIDINLY-OXY-QUINOLINE BASED HERBICIDAL COMPOUNDS” (SYNGENTA CROP PROTECTION AG, priority 2022, published 2025).

How the values were obtained:
Format in all cases: in vivo
Details in all cases: 250 g/ha, evaluated after 13 days, five-point scale
[1] = system: Amaranthus retoflexus (AMARE); experiment: Post-emergence herbicide glasshouse test
Procedure: (§1) Seeds of a variety of test species are sown in standard soil in pots Amaranthus retoflexus (AMARE), Amaranthus palmeri (AMAPA), Echinochloa crus-galli (ECHCG), Ipomoea hederacea (IPOHE), Setaria faberi (SETFA). After cultivation for one day (pre-emergence) or after 8 days cultivation (post-emergence) under controlled conditions in a glasshouse (at 24/16° C., day/night; 14 hours light; 65% humidity), the plants are sprayed with an aqueous spray solution derived from the formulation of the technical active ingredient in acetone/water (50:50) solution containing 0.5% Tween 20 (polyoxyethelyene sorbitan monolaurate, CAS RN 9005-64-5). Compounds are applied at 250 g/ha unless otherwise stated. The test plants are then grown in a glasshouse under controlled conditions in a glasshouse (at 24/16° C., day/night; 14 hours light; 65% humidity) and watered twice daily. After 13 days for pre and post-emergence, the test is evaluated for the percentage damage caused to the plant. The biological activities are shown in the following table on a five-point scale (5=81-100%; 4=61-80%; 3=41-60%; 2=21-40%; 1=0-20%).

[2] = system: Ipomoea hederacea (IPOHE); experiment: Post-emergence herbicide glasshouse test
Procedure: as §1

Setaria faberi (SETFA) [3] = experiment: Post-emergence herbicide glasshouse test
Procedure: as §1

[4] = system: Amaranthus palmeri (AMAPA); experiment: Post-emergence herbicide glasshouse test
Procedure: as §1

[5] = system: Echinochloa crus-galli (ECHCG); experiment: Post-emergence herbicide glasshouse test
Procedure: as §1

[6] = system: Amaranthus retoflexus (AMARE); experiment: Pre-emergence herbicide glasshouse test
Procedure: as §1

[7] = system: Ipomoea hederacea (IPOHE); experiment: Pre-emergence herbicide glasshouse test
Procedure: as §1

Setaria faberi (SETFA) [8] = experiment: Pre-emergence herbicide glasshouse test
Procedure: as §1

[9] = system: Amaranthus palmeri (AMAPA); experiment: Pre-emergence herbicide glasshouse test
Procedure: as §1

[10] = system: Echinochloa crus-galli (ECHCG); experiment: Pre-emergence herbicide glasshouse test
Procedure: as §1

SMILES | percentage damage caused to the plant, AMARE [1] | percentage damage caused to the plant, IPOHE [2] | percentage damage caused to the plant, SETFA (Setaria faberi (SETFA) [3]) | percentage damage caused to the plant, AMAPA [4] | percentage damage caused to the plant, ECHCG [5] | percentage damage caused to the plant, AMARE [6] | percentage damage caused to the plant, IPOHE [7] | percentage damage caused to the plant, SETFA (Setaria faberi (SETFA) [8]) | percentage damage caused to the plant, AMAPA [9] | percentage damage caused to the plant, ECHCG [10]
C=CCON=CCCc1nc(C(F)(F)F)nc2cccc(Oc3ncc(Cl)cn3)c12 [Compound 1.011] | 5 (5=81-100%) | 2 (2=21-40%) | 4 (4=61-80%) | 4 (4=61-80%) | 4 (4=61-80%) | 5 (5=81-100%) | 2 (2=21-40%) | 5 (5=81-100%) | 5 (5=81-100%) | 4 (4=61-80%)
CCNC(=O)CCc1nc(C(F)(F)F)nc2cccc(Oc3ncc(Cl)cn3)c12 [Compound 1.012, 3-[5-(5-chloropyrimidin-2-yl)oxy-2-(trifluoromethyl)quinazolin-4-yl]-N-ethyl-propanamide] | 2 (2=21-40%) | 1 (1=0-20%) | 1 (1=0-20%) | 3 (3=41-60%) | 1 (1=0-20%) | 1 (1=0-20%) | 1 (1=0-20%) | 1 (1=0-20%) | 2 (2=21-40%) | 1 (1=0-20%)
FC(F)(F)c1ncc(-c2nc(C(F)(F)F)nc3cccc(Oc4ncc(Cl)cn4)c23)cn1 [Compound 1.013, 5-(5-chloropyrimidin-2-yl)oxy-2-(trifluoromethyl)-4-[2-(trifluoromethyl)pyrimidin-5-yl]quinazoline] | 2 (2=21-40%) | 1 (1=0-20%) | 1 (1=0-20%) | 2 (2=21-40%) | 1 (1=0-20%) | 1 (1=0-20%) | 1 (1=0-20%) | 1 (1=0-20%) | 1 (1=0-20%) | 1 (1=0-20%)
Cc1ncc(-c2nc(C(F)(F)F)nc3cccc(Oc4ncc(Cl)cn4)c23)cn1 [Compound 1.014] | 1 (1=0-20%) | 1 (1=0-20%) | 1 (1=0-20%) | 1 (1=0-20%) | 1 (1=0-20%) | 2 (2=21-40%) | 1 (1=0-20%) | 1 (1=0-20%) | 2 (2=21-40%) | 1 (1=0-20%)
Cc1cnc(Oc2cccc3nc(C(F)(F)F)nc(CCC4CC4)c23)nc1 [Compound 1.015, 4-(2-cyclopropylethyl)-5-(5-methylpyrimidin-2-yl)oxy-2-(trifluoromethyl)quinazoline] | 4 (4=61-80%) | 3 (3=41-60%) | 5 (5=81-100%) | 2 (2=21-40%) | 4 (4=61-80%) | 5 (5=81-100%) | 3 (3=41-60%) | 5 (5=81-100%) | 5 (5=81-100%) | 5 (5=81-100%)
Cn1nc(-c2nc(C(F)(F)F)nc3cccc(Oc4ncc(Cl)cn4)c23)cc1C(F)F [Compound 1.016, 5-(5-chloropyrimidin-2-yl)oxy-4-[5-(difluoromethyl)-1-methyl-pyrazol-3-yl]-2-(trifluoromethyl)quinazoline] | 2 (2=21-40%) | 2 (2=21-40%) | 1 (1=0-20%) | 2 (2=21-40%) | 1 (1=0-20%) | 1 (1=0-20%) | 1 (1=0-20%) | 1 (1=0-20%) | 2 (2=21-40%) | 1 (1=0-20%)
CC(=NOCC(F)(F)F)c1nc(C(F)(F)F)nc2cccc(Oc3ncc(Cl)cn3)c12 [Compound 1.018, 1-[5-(5-chloropyrimidin-2-yl)oxy-2-(trifluoromethyl)quinazolin-4-yl]-N-(2,2,2-trifluoroethoxy) ethanimine] | 2 (2=21-40%) | 2 (2=21-40%) | 1 (1=0-20%) | 2 (2=21-40%) | 1 (1=0-20%) | 1 (1=0-20%) | 1 (1=0-20%) | 1 (1=0-20%) | 1 (1=0-20%) | 1 (1=0-20%)
FC(F)(F)c1nc(CCCC2CC2)c2c(Oc3ncc(Cl)cn3)cccc2n1 [Compound 1.019] | 5 (5=81-100%) | 3 (3=41-60%) | 5 (5=81-100%) | 5 (5=81-100%) | 2 (2=21-40%) | 4 (4=61-80%) | 1 (1=0-20%) | 5 (5=81-100%) | 5 (5=81-100%) | 4 (4=61-80%)
ON=CCCc1nc(C(F)(F)F)nc2cccc(Oc3ncc(Cl)cn3)c12 [Compound 1.021] | 5 (5=81-100%) | 2 (2=21-40%) | 2 (2=21-40%) | 4 (4=61-80%) | 2 (2=21-40%) | 4 (4=61-80%) | 1 (1=0-20%) | 3 (3=41-60%) | 4 (4=61-80%) | 3 (3=41-60%)
CO/N=C\CCc1nc(C(F)(F)F)nc2cccc(Oc3ncc(Cl)cn3)c12 [Compound 1.022, (Z)-3-[5-(5-chloropyrimidin-2-yl)oxy-2-(trifluoromethyl)quinazolin-4-yl]-N-methoxy-propan-1-imine] | 4 (4=61-80%) | 3 (3=41-60%) | 4 (4=61-80%) | 4 (4=61-80%) | 4 (4=61-80%) | 5 (5=81-100%) | 4 (4=61-80%) | 5 (5=81-100%) | 5 (5=81-100%) | 5 (5=81-100%)
